# What was measured:
# [1] = test system: S. aureus DSM 20231; assay: fitness (endpoint OD595 vs no drug) (fraction); higher = more growth
# Procedure, shortened: (§1)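 Fitness compares growth at the stationary-phase transition with the robust mean of no-drug control wells, as a ratio of optical densities. The ratio is capped at 1. Wells of 384-well plates held 30 µl, or 55 µl for S. pneumoniae, inoculated at OD595 0.01. Readings at OD595 every 30 min for 14 h at 37 °C were corrected against the first reading.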
# [2] = test system: S. aureus Newman; assay: as above
# Procedure, shortened: as §1
# [3] = test system: S. pneumoniae D39V; assay: as above
# Procedure, shortened: as §1
# [4] = test system: B. subtilis 168; assay: Bliss interaction score (quartile over a dose matrix) (fitness difference); higher = more antagonism (negative = synergy)
# Procedure, shortened: (§2)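 Each OD595 reading at entry into stationary phase was scaled to the robust mean of the untreated wells on its plate, with a ceiling of 1. These ratios define fitness, and single-drug fitness was inferred from combinations. The Bliss score compares observed fitness with the product-based expectation and is reported as quartiles across all replicate types, technical, biological and donor/recipient.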
# [5] = test system: S. aureus DSM 20231; assay: as above
# Procedure, shortened: as §2
# [6] = test system: S. aureus Newman; assay: as above
# Procedure, shortened: as §2
# [7] = test system: S. pneumoniae D39V; assay: as above
# Procedure, shortened: as §2
# [8] = first compound 0.125 µg/mL, partner 171 µg/mL
# [9] = first compound 0.25 µg/mL, partner 171 µg/mL
# [10] = first compound 0.5 µg/mL, partner 171 µg/mL
# [11] = first compound 0.125 µg/mL, partner 1.25 µg/mL
# [12] = first compound 0.125 µg/mL, partner 2.5 µg/mL
# [13] = first compound 0.125 µg/mL, partner 5 µg/mL
# [14] = first compound 0.25 µg/mL, partner 1.25 µg/mL
# [15] = first compound 0.25 µg/mL, partner 2.5 µg/mL
# [16] = first compound 0.25 µg/mL, partner 5 µg/mL
# [17] = first compound 0.5 µg/mL, partner 1.25 µg/mL
# [18] = first compound 0.5 µg/mL, partner 5 µg/mL
# 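Throughout, for Bliss interaction score (quartile over a dose matrix): first quartile when negative (synergy) and third quartile when positive (antagonism).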
# 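Throughout, for fitness (endpoint OD595 vs no drug): OD595 on entry to stationary phase over no-drug wells; at most 1.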
structure (smiles),measurement,setting,value
CO/N=C(\C(=O)N[C@@H]1C(=O)N2C(C(=O)[O-])=C(C[N+]3(C)CCCC3)CS[C@H]12)c1csc(N)n1 [Cefepime] + CCN(CC)CCOC(=O)c1ccc(N)cc1 [Procaine],fitness,[1]; [8],0.95
same,fitness,[1]; [9],0.896
same,fitness,[1]; [10],0.921
same,fitness,"[2]; first compound 0.125 µg/mL, partner 85.5 µg/mL",0.913
same,fitness,[2]; [8],0.879
same,fitness,"[2]; first compound 0.125 µg/mL, partner 342 µg/mL",0.906
same,fitness,"[2]; first compound 0.25 µg/mL, partner 85.5 µg/mL",0.855
same,fitness,[2]; [9],0.874
same,fitness,"[2]; first compound 0.25 µg/mL, partner 342 µg/mL",0.833
same,fitness,"[2]; first compound 0.5 µg/mL, partner 85.5 µg/mL",0.801
same,fitness,[2]; [10],0.699
same,fitness,"[2]; first compound 0.5 µg/mL, partner 342 µg/mL",0.77
same,fitness,"[3]; first compound 0.007 µg/mL, partner 85.5 µg/mL",≥ 1
same,fitness,"[3]; first compound 0.007 µg/mL, partner 171 µg/mL",≥ 1
same,fitness,"[3]; first compound 0.007 µg/mL, partner 342 µg/mL",≥ 1
same,fitness,"[3]; first compound 0.0078 µg/mL, partner 85.5 µg/mL, one replicate",≥ 1
same,fitness,"[3]; first compound 0.0078 µg/mL, partner 171 µg/mL, one replicate",≥ 1
same,fitness,"[3]; first compound 0.0078 µg/mL, partner 342 µg/mL, one replicate",≥ 1
same,fitness,"[3]; first compound 0.014 µg/mL, partner 85.5 µg/mL",≥ 1
same,fitness,"[3]; first compound 0.014 µg/mL, partner 171 µg/mL",≥ 1
same,fitness,"[3]; first compound 0.014 µg/mL, partner 342 µg/mL",0.999
same,fitness,"[3]; first compound 0.0155 µg/mL, partner 85.5 µg/mL, one replicate",0.943
same,fitness,"[3]; first compound 0.0155 µg/mL, partner 171 µg/mL, one replicate",≥ 1
same,fitness,"[3]; first compound 0.0155 µg/mL, partner 342 µg/mL, one replicate",≥ 1
same,fitness,"[3]; first compound 0.028 µg/mL, partner 85.5 µg/mL",0.974
same,fitness,"[3]; first compound 0.028 µg/mL, partner 171 µg/mL",0.948
same,fitness,"[3]; first compound 0.028 µg/mL, partner 342 µg/mL",0.955
same,fitness,"[3]; first compound 0.031 µg/mL, partner 85.5 µg/mL, one replicate",0.244
same,fitness,"[3]; first compound 0.031 µg/mL, partner 171 µg/mL, one replicate",0.481
same,fitness,"[3]; first compound 0.031 µg/mL, partner 342 µg/mL, one replicate",0.635
same,Bliss interaction score,[4],0.0389
same,Bliss interaction score,[5],-0.0573
same,Bliss interaction score,[6],-0.0735
same,Bliss interaction score,[7],0.0421
CO/N=C(\C(=O)N[C@@H]1C(=O)N2C(C(=O)[O-])=C(C[N+]3(C)CCCC3)CS[C@H]12)c1csc(N)n1 [Cefepime] + CN1C2=CC=CC=C2N=C3C1=CC=CC3=O [Pyocyanin],fitness,[1]; [11],0.854
same,fitness,[1]; [12],0.846
same,fitness,[1]; [13],0.639
same,fitness,[1]; [14],0.837
same,fitness,[1]; [15],0.831
same,fitness,[1]; [16],0.564
same,fitness,[1]; [17],0.786
same,fitness,[1]; [18],0.571
same,fitness,[2]; [11],0.85
same,fitness,[2]; [12],0.819
same,fitness,[2]; [13],0.56
same,fitness,[2]; [14],0.804
same,fitness,[2]; [15],0.783
same,fitness,[2]; [16],0.508
same,fitness,[2]; [17],0.748
same,fitness,"[2]; first compound 0.5 µg/mL, partner 2.5 µg/mL",0.702
same,fitness,[2]; [18],0.535
same,fitness,"[3]; first compound 0.007 µg/mL, partner 0.325 µg/mL",≥ 1
same,fitness,"[3]; first compound 0.007 µg/mL, partner 0.65 µg/mL",≥ 1
same,fitness,"[3]; first compound 0.007 µg/mL, partner 1.3 µg/mL",0.963
same,fitness,"[3]; first compound 0.0078 µg/mL, partner 0.325 µg/mL, one replicate",≥ 1
same,fitness,"[3]; first compound 0.0078 µg/mL, partner 0.65 µg/mL, one replicate",≥ 1
same,fitness,"[3]; first compound 0.014 µg/mL, partner 0.325 µg/mL",≥ 1
same,fitness,"[3]; first compound 0.014 µg/mL, partner 0.65 µg/mL",0.997
same,fitness,"[3]; first compound 0.014 µg/mL, partner 1.3 µg/mL",0.961
same,fitness,"[3]; first compound 0.0155 µg/mL, partner 0.325 µg/mL, one replicate",≥ 1
same,fitness,"[3]; first compound 0.0155 µg/mL, partner 0.65 µg/mL, one replicate",≥ 1
same,fitness,"[3]; first compound 0.028 µg/mL, partner 0.325 µg/mL",0.946
same,fitness,"[3]; first compound 0.028 µg/mL, partner 0.65 µg/mL",0.974
same,fitness,"[3]; first compound 0.028 µg/mL, partner 1.3 µg/mL",0.943
same,fitness,"[3]; first compound 0.031 µg/mL, partner 0.325 µg/mL, one replicate",0.786
same,fitness,"[3]; first compound 0.031 µg/mL, partner 0.65 µg/mL, one replicate",0.907
same,Bliss interaction score,[4],0.0781
same,Bliss interaction score,[5],-0.078
same,Bliss interaction score,[6],0.0752
same,Bliss interaction score,[7],0.126

# Reference: the supplement of paper PMC10627819
